Assay [1] has as its target recombinant DhelOBP20 (Dastarcus helophoroides, UniProt A0A1I9HZP8). Description: Fluorescence competitive binding assay (1-NPN probe). The conditions noted are these: DhelOBP20, pH 7.4; for IC50: read-out: IC50, ligand concentration displacing 50% of the fluorescence intensity of the DhelOBPs/1-NPN complex. Here is the method: (§1) Purified proteins were dissolved in 30 mM Tris-HCl buffer (pH 7.4 and 5.0), and emission fluorescence spectra were recorded on an RF-5301PC fluorescence spectrophotometer (Shimadzu, Kyoto, Japan) at room temperature in a right-angle configuration with a 1-cm light path quartz cuvette. To measure the affinity of the fluorescent probe 1-NPN with the target proteins, a […] solution of protein in 30 mM Tris-HCL (pH 7.4 and 5.0) was titrated with aliquots of 1 mM 1-NPN to final concentrations ranging from 0 to the approaching saturation. The probe 1-NPN was excited at 337 nm, and the emission spectra were recorded between 350 and 500 nm. The binding affinities of other ligands were measured using 1-NPN (2 μM) as the fluorescent probe with a stoichiometry of 1:1 (protein: probe), with the final concentration of each ligand ranging from 0 to 20 μM. All ligands, including 1-NPN were purchased from Sigma-Aldrich (St Louis, MO, USA) and TCI Shanghai (Shanghai, China) and dissolved in chromatogram class methanol (Aladdin, Shanghai, China).
(§2) The dissociation constants (Kd) of DhelOBPs with 1-NPN were calculated from Scatchard plots of the binding data using PRISM 8.0 software (GraphPad, La Jolla, CA, USA). Binding affinities (Ki) of DhelOBPs for each ligand were calculated based on the IC50 value (the initial fluorescence level of the competitor concentration reduced by half) using the equation: Ki=IC50/(1+1-NPN/K1-NPN) , where [1-NPN] is the free concentration of 1-NPN, and K1-NPN is the dissociation constant of the complex OBP/1-NPN. The analysis supposes that there is only one protein binding site, which is 100% active, and that the binding is reversible and at an equilibrium.

Assay [2] has as its target recombinant DhelOBP14 (Dastarcus helophoroides, UniProt A0A1I9HZQ7). The assay is described as above. The settings on record: DhelOBP14, pH 7.4; for IC50: read-out: IC50, ligand concentration displacing 50% of the fluorescence intensity of the DhelOBPs/1-NPN complex. Here is the method: as §1, §2
The target of assay [3] is recombinant DhelOBP6 (Dastarcus helophoroides, UniProt A0A1I9HZP3). Described as above. The settings on record: DhelOBP6, pH 7.4; Scatchard plot; read-out: dissociation constant (Kd) bound to 1-NPN. Here is the method: as §1, §2
The target of assay [4] is recombinant DhelOBP5 (Dastarcus helophoroides, UniProt A0A1I9HZP1). Described as above. The conditions noted are these: DhelOBP5, pH 7.4; for IC50: read-out: IC50, ligand concentration displacing 50% of the fluorescence intensity of the DhelOBPs/1-NPN complex. Here is the method:
as §1, §2

Assay [5] concerns the target recombinant DhelOBP18 (Dastarcus helophoroides, UniProt A0A1I9HZQ8). The assay is described as above. The conditions noted are these: DhelOBP18, pH 7.4; for IC50: read-out: IC50, ligand concentration displacing 50% of the fluorescence intensity of the DhelOBPs/1-NPN complex. As for the experimental part: as §1, §2
Assay [6] has as its target recombinant DhelOBP4 (Dastarcus helophoroides, UniProt A0A1I9HZP6). The description is as above. The conditions noted are these: for IC50: read-out: IC50, ligand concentration displacing 50% of the fluorescence intensity of the DhelOBPs/1-NPN complex; for Ki: calculated from IC50, read-out: Ki, dissociation constant. Here is the method: as §1, §2
The subject of assay [7] is D. helophoroides adults. Description: Y-tube olfactometer bioassay. It is filed as in vivo, Dastarcus helophoroides. The conditions noted are these: female and male adults, 20 μL of chemical diluted 1000 times vs liquid paraffin, chi-square test. As for the experimental part: (§3) Y-tube olfactometer experiments were conducted to evaluate the behavioral response to HIPVs with the best binding affinities in darkness at approximately 25 ± 1 °C. The central tube was 15 cm long, and the two branching arms, each linked to one vial, were 12 cm long with a 75° angle between them. Twenty microliters of each chemical that had been diluted 1000 times by volume were added to a 1 × 1 cm filter paper in one of the vials, and 20 μL of liquid paraffin were dropped on the same size filter paper in the second vial as the blank control. An effective choice was recorded when adults crawled at least 5 cm into the arm within 1 min and stayed 30 s at least. After every five individuals, the two arms were exchanged to avoid position effects. After testing 10 individuals, the Y-tube olfactometer was cleaned with absolute ethanol and oven-dried at 150 °C for 2 h. Fifty adult D. helophoroides were analyzed in each treated group. The results were analyzed using the chi-square test.

For assay [8], the system named is D. helophoroides adults injected with dsGFP or dsDhelOBP4. Kind of assay: RNAi-mediated Y-tube olfactometer bioassay. It is filed as in vivo, Dastarcus helophoroides. Here is the method:
as §3, with “test. 50 male and 50 female adults of D. helophoroides were chosen on day 1–4 after eclosion. The two treated groups were: dsGFP-injected and dsRNA-injected. dsGFP (250 ng) or dsRNA (250 ng) was respectively injected into the thorax internode of the adults with a microinjector (World Precision Instruments Inc., Sarasota, FL, USA) under a microscope. The RNAi efficiency was detected using a qRT-PCR for seven consecutive days. Following behavioral response was evaluated using the Y-tube olfactometer.” for “test.”

The mark [9] stands for this setting: Scatchard plot, read-out: dissociation constant (Kd) bound to 1-NPN.
[10] abbreviates: female adults after injection of dsDhelOBP4.
Setting [11] is: female and male adults after injection of dsGFP.
The mark [12] stands for this setting: male adults after injection of dsDhelOBP4.

“Also recorded” adds a separate entry of the source. Read-outs that look alike come from different tables or passages of the source.

recombinant DhelOBP14, sequence (A0A1I9HZQ7 entry or part of it): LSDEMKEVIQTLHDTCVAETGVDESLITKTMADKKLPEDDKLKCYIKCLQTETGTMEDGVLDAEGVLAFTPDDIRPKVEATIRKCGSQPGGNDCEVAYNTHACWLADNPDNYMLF
recombinant DhelOBP5, sequence (A0A1I9HZP1 entry or part of it): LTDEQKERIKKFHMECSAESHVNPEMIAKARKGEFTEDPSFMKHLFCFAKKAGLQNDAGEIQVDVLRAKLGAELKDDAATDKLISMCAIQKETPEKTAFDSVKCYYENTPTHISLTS
recombinant DhelOBP18, sequence (A0A1I9HZQ8 entry or part of it): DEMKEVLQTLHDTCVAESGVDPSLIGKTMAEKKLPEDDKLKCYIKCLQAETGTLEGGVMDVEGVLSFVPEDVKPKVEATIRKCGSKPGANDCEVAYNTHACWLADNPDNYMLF
recombinant DhelOBP4, sequence (A0A1I9HZP6 entry or part of it): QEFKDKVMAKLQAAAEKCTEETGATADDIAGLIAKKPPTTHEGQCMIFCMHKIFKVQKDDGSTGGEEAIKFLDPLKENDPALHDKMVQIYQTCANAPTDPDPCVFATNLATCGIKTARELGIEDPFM
recombinant DhelOBP20, sequence (A0A1I9HZP8 entry or part of it): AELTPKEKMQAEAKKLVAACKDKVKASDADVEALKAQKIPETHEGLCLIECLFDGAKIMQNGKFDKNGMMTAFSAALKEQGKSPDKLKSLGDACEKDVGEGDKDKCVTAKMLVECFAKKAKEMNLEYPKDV
recombinant DhelOBP6, sequence (A0A1I9HZP3 entry or part of it): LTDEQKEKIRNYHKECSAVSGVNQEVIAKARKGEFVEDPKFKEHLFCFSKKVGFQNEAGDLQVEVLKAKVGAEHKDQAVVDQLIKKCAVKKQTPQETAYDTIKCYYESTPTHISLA

In general, Kd refers to the equilibrium constant for the complex coming apart. For the molecule `c1ccc(Nc2cccc3ccccc23)cc1` [1-NPN, N-phenyl-1-naphthylamine, reference compound], the Kd in assay [1] (setting [9]) worked out at 5.13 µM; in assay [2] (setting [9]), 17.4 µM; in assay [3], 120 µM; in assay [4] (setting [9]), 41 µM; in assay [5] (setting [9]), 1.23 µM; in assay [6] (DhelOBP4, pH 7.4, Scatchard plot, read-out: dissociation constant (Kd) bound to 1-NPN) it was 22.4 µM.
`CC1=CCC(O)(C(C)C)CC1` (stereo not shown) [Terpinen-4-ol]: the IC50 in assay [1] was above 50 µM; in assay [2], above 50 µM; in assay [4] it was above 50 µM; in assay [5], above 50 µM; in assay [6] (DhelOBP4, pH 5.0) it was above 50 µM; in assay [6] (DhelOBP4, pH 7.4), above 20 µM.
Usually Ki stands for the dissociation constant of the complex between target and ligand, obtained from inhibition or displacement. With `CC1=CCC(=C(C)C)CC1` [Terpinolene], the IC50 in assay [1] was above 50 µM; in assay [2], above 50 µM; in assay [4] it was above 50 µM; in assay [5] it was above 50 µM; in assay [6] (DhelOBP4, pH 5.0), above 50 µM; in assay [6] (DhelOBP4, pH 7.4), 15.7 ± 1.8 µM. In addition, in assay [6] (DhelOBP4, pH 7.4), the Ki was 14.5 ± 1.7 µM.
Regarding `CC1=CC[C@@H](C(C)(C)O)CC1` [α-Terpineol], the “Behavioral response of D. helophoroides” value in assay [7] is “no behavioral effects”; in assay [7] (listed as α-terpineol) it was “did not elicit a behavioral response”. The IC50 in assay [1] was above 50 µM; in assay [2], above 50 µM; in assay [4], above 50 µM; in assay [5], above 50 µM; in assay [6] (DhelOBP4, pH 5.0), above 50 µM; in assay [6] (DhelOBP4, pH 7.4), 10.4 ± 0.1 µM. The Ki in assay [6] (DhelOBP4, pH 7.4) was 9.6 ± 0.1 µM.
As to `CC12CCC(CC1=O)C2(C)C` (stereo not shown) [Camphor], the IC50 in assay [1] was above 50 µM; in assay [2], above 50 µM; in assay [4], above 50 µM; in assay [5] it was above 50 µM; in assay [6] (DhelOBP4, pH 5.0), above 50 µM; in assay [6] (DhelOBP4, pH 7.4), 18 ± 2.4 µM. Also, the Ki in assay [6] (DhelOBP4, pH 7.4) was 16.6 ± 2.2 µM.
For `CC12CCC(C1)C(C)(C)C2=O` (stereo not shown) [Fenchone], the IC50 in assay [1] is above 50 µM; in assay [2], above 50 µM; in assay [4] it was above 50 µM; in assay [5] it was above 50 µM; in assay [6] (DhelOBP4, pH 5.0) it was above 20 µM; in assay [6] (DhelOBP4, pH 7.4) it was above 20 µM.
On to `CC1=CCC(C(C)C)=CC1` [γ-Terpinene], for which the “Behavioral response of D. helophoroides” value was “attractive effects” in assay [7] and “significantly attracted” in assay [7] (listed as γ-terpinene). Further, the IC50 in assay [1] was above 50 µM; in assay [2] it was above 50 µM; in assay [4], above 50 µM; in assay [5], above 50 µM; in assay [6] (DhelOBP4, pH 5.0), above 50 µM; in assay [6] (DhelOBP4, pH 7.4) it was 11 ± 0.3 µM. The Ki in assay [6] (DhelOBP4, pH 7.4) was 10.1 ± 0.3 µM. Besides, the results for the “Behavioral response of D. helophoroides post-RNAi treatment” value in assay [8] (setting [10]), in assay [8] (setting [11]) and in assay [8] (setting [12]) were “significantly avoidant effects; also recorded: significant repellent response”, “identically attractive effects” and “no behavioral effects; also recorded: did not elicit a behavioral response”, respectively.
As for `CC1=CC(=O)[C@H]2C[C@@H]1C2(C)C` [(-)-Verbenone], the IC50 is above 50 µM in assay [1]; above 50 µM in assay [2]; above 50 µM in assay [4]; above 50 µM in assay [5]; above 50 µM in assay [6] (DhelOBP4, pH 5.0); above 20 µM in assay [6] (DhelOBP4, pH 7.4).
Consider `Cc1ccc(C(C)C)cc1` [p-Cymene], for which the “Behavioral response of D. helophoroides” value in assay [7] is reported as “significantly attracted; also recorded: attractive effects”. In addition, the IC50 was above 50 µM in assay [1]; above 50 µM in assay [2]; above 50 µM in assay [4]; above 50 µM in assay [5]; above 50 µM in assay [6] (DhelOBP4, pH 5.0); 13 ± 0.9 µM in assay [6] (DhelOBP4, pH 7.4). The Ki in assay [6] (DhelOBP4, pH 7.4) is 12 ± 0.9 µM. Also, the results for the “Behavioral response of D. helophoroides post-RNAi treatment” value in assay [8] (setting [10]), in assay [8] (setting [11]) and in assay [8] (setting [12]) were “significantly avoidant effects; also recorded: significant repellent response”, “identically attractive effects” and “no behavioral effects; also recorded: did not elicit a behavioral response”, respectively.

These data come from publication PMC9962305, “A Highly Expressed Antennae Odorant-Binding Protein Involved in Recognition of Herbivore-Induced Plant Volatiles in Dastarcus helophoroides” (International Journal of Molecular Sciences, 2023).
